# Molecular target: EP2 subtype of the human PGE2 receptor (hEP2 receptor) (Homo sapiens, UniProt P43116)
# Assay: cAMP antagonism test, human prostaglandin E2 (subtype EP2) receptor signal
# Type: cell-based
# Description: 1. Detection of Antagonism to the Human Prostaglandin E2 (Subtype EP2) Receptor Signal
# The binding of PGE2 to the EP2 subtype of the human PGE2 receptor induces the activation of membrane-located adenylate cyclases and leads to the formation of cAMP. In the presence of the phosphodiesterase inhibitor IBMX, the cAMP accumulated owing to this stimulation and released by cell lysis is used in a competitive detection method. In this test, the cAMP present in the lysate competes with a fluorescence-labelled cAMP (cAMP-d2) for binding to an Eu cryptate-labelled anti-cAMP antibody.
# In the absence of cellular cAMP, a maximal signal is produced, which is attributable to the binding of this cAMP-d2 molecule to the antibody. After excitation of the […] at 337 nm, there is a fluorescence resonance energy transfer (FRET) to the Eu cryptate molecules of the anti-cAMP antibody (labelled therewith), followed by a long-lasting emission signal at 665 nm (and at […]). Both signals are measured in a suitable measurement instrument with a time delay, i.e. after decay of the background fluorescence. Any increase in the low FRET signal caused by prostaglandin E2 administration (measured as well ratio change=emission665nm/emission620nm*10000) indicates the action of antagonists.
# 1.2.1. Test for Antagonism (Data Per Well of a 384-Well Plate):
# To a test plate with the substance solutions already added (0.05 μl; 100% DMSO, concentration range from 0.8 nM-16.5 nM) were added 4 μl of a cAMP-d2/cell suspension (625000 cells/ml). After a 20-minute preincubation at room temperature (RT), 2 μl of a 3×PGE2 solution (1.5 nM, in PBS-IBMX) were added and incubated in the presence of the agonist for a further 60 mins at RT (volume: […]). Next the reaction was stopped by addition of 2 μl of lysis buffer and incubated for a further 20 mins at RT before the actual measurement (volume: ˜8 μl).
# EP2 subtype of the human PGE2 receptor (hEP2 receptor), sequence (P43116 whole entry): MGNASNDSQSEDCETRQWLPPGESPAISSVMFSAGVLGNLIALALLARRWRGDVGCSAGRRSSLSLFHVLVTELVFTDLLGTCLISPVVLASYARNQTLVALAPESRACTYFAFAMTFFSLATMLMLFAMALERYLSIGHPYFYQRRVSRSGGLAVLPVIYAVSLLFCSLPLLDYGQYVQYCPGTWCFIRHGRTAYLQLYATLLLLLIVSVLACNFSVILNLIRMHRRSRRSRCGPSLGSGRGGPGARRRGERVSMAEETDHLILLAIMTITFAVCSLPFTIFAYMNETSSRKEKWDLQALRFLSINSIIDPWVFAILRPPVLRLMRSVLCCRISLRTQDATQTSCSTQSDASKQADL
row,SMILES,IC50 [µM]
1,"Cc1c(C(=O)NCCOC(F)(F)F)ccc2nn(CC3CCN(C(=O)c4ccc(Cl)cc4)CC3)cc12 [Example E77, 2-{[1-(4-chlorobenzoyl)piperidin-4-yl]methyl}-4-methyl-N-[2-(trifluoromethoxy)ethyl]-2H-indazole-5-carboxamide]",> 0.05
2,"Cc1c(C(=O)NCCOC(F)(F)F)ccc2nn(CC3CCN(C(=O)c4ccc(Oc5ccc(F)cc5)cc4)CC3)cc12 [Example E78, 2-({1-[4-(4-fluorophenoxy)benzoyl]piperidin-4-yl}methyl)-4-methyl-N-[2-(trifluoro-methoxy)ethyl]-2H-indazole-5-carboxamide]",> 0.05
3,"Cc1c(C(=O)NCCOC(F)(F)F)ccc2nn(CC3CCN(C(=O)c4ccc(-c5ccc(F)cc5)cc4)CC3)cc12 [Example E79, 2-({1-[(4′-fluorobiphenyl-4-yl)carbonyl]piperidin-4-yl}methyl)-4-methyl-N-[2-(trifluoromethoxy)ethyl]-2H-indazole-5-carboxamide]",> 0.05
4,"Cc1c(C(=O)NCCOC(F)(F)F)ccc2nn(CC3CCN(C(=O)c4ccc(Oc5ccc(C(F)(F)F)cc5)cc4)CC3)cc12 [Example E80, 4-methyl-N-[2-(trifluoromethoxy)ethyl]-2-[(1-{4-[4-(trifluoromethyl)phenoxy]-benzoyl}piperidin-4-yl)methyl]-2H-indazole-5-carboxamide]",> 0.05
5,"Cc1c(C(=O)NCCOC(C)(C)C)ccc2nn(CC3CCN(C(=O)c4ccc(Cl)cc4)CC3)cc12 [Example E81, N-(2-tert-butoxyethyl)-2-{[1-(4-chlorobenzoyl)piperidin-4-yl]methyl}-4-methyl-2H-indazole-5-carboxamide]",> 0.05
6,"Cc1c(C(=O)NCCOC(C)(C)C)ccc2nn(CC3CCN(C(=O)c4ccc(Oc5ccc(F)cc5)cc4)CC3)cc12 [Example E82, N-(2-tert-butoxyethyl)-2-({1-[4-(4-fluorophenoxy)benzoyl]piperidin-4-yl}methyl)-4-methyl-2H-indazole-5-carboxamide]",> 0.05
7,"Cc1c(C(=O)NCCOC(C)(C)C)ccc2nn(CC3CCN(C(=O)c4ccc(-c5ccc(F)cc5)cc4)CC3)cc12 [Example E83, N-(2-tert-butoxyethyl)-2-({1-[(4′-fluorobiphenyl-4-yl)carbonyl]piperidin-4-yl}methyl)-4-methyl-2H-indazole-5-carboxamide]",> 0.05
8,"Cc1c(C(=O)NCCOC(C)(C)C)ccc2nn(CC3CCN(C(=O)c4ccc(Oc5ccc(C(F)(F)F)cc5)cc4)CC3)cc12 [Example E84, N-(2-tert-butoxyethyl)-4-methyl-2-[(1-{4-[4-(trifluoromethyl)phenoxy]benzoyl}-piperidin-4-yl)methyl]-2H-indazole-5-carboxamide]",> 0.05
9,"[2H]C([2H])([2H])OC([2H])([2H])C([2H])([2H])NC(=O)c1ccc2nn(CC3CCN(C(=O)c4ccc(Cl)cc4)CC3)cc2c1C [Example E85, 2-{[1-(4-chlorobenzoyl)piperidin-4-yl]methyl}-4-methyl-N-{2-[(^2H3)methyloxy]-(^2H4)ethyl}-2H-indazole-5-carboxamide]",> 0.05
10,"[2H]C([2H])([2H])OC([2H])([2H])C([2H])([2H])NC(=O)c1ccc2nn(CC3CCN(C(=O)c4ccc(Oc5ccc(F)cc5)cc4)CC3)cc2c1C [Example E86, 2-({1-[4-(4-fluorophenoxy)benzoyl]piperidin-4-yl}methyl)-4-methyl-N-{2-[(^2H3)methyloxy](^2H4)ethyl}-2H-indazole-5-carboxamide]",> 0.05
11,"COCCNC(=O)c1ccc2nn(CC3CN(C(=O)c4ccc(Cl)cc4)C3)cc2c1C [Example E87, 2-{[1-(4-chlorobenzoyl)azetidin-3-yl]methyl}-N-(2-methoxyethyl)-4-methyl-2H-indazole-5-carboxamide]",> 0.05
12,"COCCNC(=O)c1ccc2nn(CC3CN(C(=O)c4ccc(SC(F)(F)F)cc4)C3)cc2c1C [Example E88, N-(2-methoxyethyl)-4-methyl-2-[(1-{4-[(trifluoromethyl)sulphanyl]benzoyl}azetidin-3-yl)methyl]-2H-indazole-5-carboxamide]",> 0.05
13,"COCCNC(=O)c1ccc2nn(CC3CN(C(=O)c4ccc(OC(F)(F)F)cc4)C3)cc2c1C [Example E89, N-(2-methoxyethyl)-4-methyl-2-({1-[4-(trifluoromethoxy)benzoyl]azetidin-3-yl}-methyl)-2H-indazole-5-carboxamide]",> 0.05
14,"COCCNC(=O)c1ccc2nn(CC3CN(C(=O)c4ccc(C(F)(F)F)cc4F)C3)cc2c1C [Example E90, 2-({1-[2-fluoro-4-(trifluoromethyl)benzoyl]azetidin-3-yl}methyl)-N-(2-methoxyethyl)-4-methyl-2H-indazole-5-carboxamide]",> 0.05
15,"COCCNC(=O)c1ccc2nn(CC3CN(C(=O)c4ccc(Cl)cc4F)C3)cc2c1C [Example E91, 2-{[1-(4-chloro-2-fluorobenzoyl)azetidin-3-yl]methyl}-N-(2-methoxyethyl)-4-methyl-2H-indazole-5-carboxamide]",> 0.05
16,"COCCNC(=O)c1ccc2nn(CC3CN(C(=O)c4ccc(C(F)(F)F)c(F)c4)C3)cc2c1C [Example E92, 2-({1-[3-fluoro-4-(trifluoromethyl)benzoyl]azetidin-3-yl}methyl)-N-(2-methoxyethyl)-4-methyl-2H-indazole-5-carboxamide]",> 0.05
17,"COCCNC(=O)c1ccc2nn(CC3CN(C(=O)c4ccc(Cl)c(C(F)(F)F)c4)C3)cc2c1C [Example E93, 2-({1-[4-chloro-3-(trifluoromethyl)benzoyl]azetidin-3-yl}methyl)-N-(2-methoxyethyl)-4-methyl-2H-indazole-5-carboxamide]",> 0.05
18,"COCCNC(=O)c1ccc2nn(CC3CN(C(=O)c4ccc(C5CC5)cc4)C3)cc2c1C [Example E94, 2-{[1-(4-cyclopropylbenzoyl)azetidin-3-yl]methyl}-N-(2-methoxyethyl)-4-methyl-2H-indazole-5-carboxamide]",> 0.05
19,"COCCNC(=O)c1ccc2nn(CC3CN(C(=O)c4ccc(Oc5ccc(C(F)(F)F)cc5)cc4)C3)cc2c1C [Example E95, N-(2-methoxyethyl)-4-methyl-2-[(1-{4-[4-(trifluoromethyl)phenoxy]benzoyl}azetidin-3-yl)methyl]-2H-indazole-5-carboxamide]",> 0.05
20,"Cc1c(C(=O)NCCOC2CC2)ccc2nn(CC3CN(C(=O)c4ccc(OC(F)(F)F)cc4)C3)cc12 [Example E100, N-[2-(cyclopropyloxy)ethyl]-4-methyl-2-({1-[4-(trifluoromethoxy)benzoyl]azetidin-3-yl}methyl)-2H-indazole-5-carboxamide]",> 0.05
21,"Cc1c(C(=O)NCCOC2CCC2)ccc2nn(CC3CN(C(=O)c4ccc(OC(F)(F)F)cc4)C3)cc12 [Example E101, N-[2-(cyclobutyloxy)ethyl]-4-methyl-2-({1-[4-(trifluoromethoxy)benzoyl]azetidin-3-yl}methyl)-2H-indazole-5-carboxamide]",> 0.05
22,"Cc1c(C(=O)NCCOCC2CC2)ccc2nn(CC3CN(C(=O)c4ccc(Cl)cc4)C3)cc12 [Example E102, 2-{[1-(4-chlorobenzoyl)azetidin-3-yl]methyl}-N-[2-(cyclopropylmethoxy)ethyl]-4-methyl-2H-indazole-5-carboxamide]",> 0.05
23,"Cc1c(C(=O)NCCOCC2CC2)ccc2nn(CC3CN(C(=O)c4ccc(Oc5ccc(F)cc5)cc4)C3)cc12 [Example E103, N-[2-(cyclopropylmethoxy)ethyl]-2-({1-[4-(4-fluorophenoxy)benzoyl]azetidin-3-yl}-methyl)-4-methyl-2H-indazole-5-carboxamide]",> 0.05
24,"Cc1ccc(C(=O)N2CC(Cn3cc4c(C)c(C(=O)NCCOCC5CC5)ccc4n3)C2)cc1 [Example E104, N-[2-(cyclopropylmethoxy)ethyl]-4-methyl-2-{[1-(4-methylbenzoyl)azetidin-3-yl]-methyl}-2H-indazole-5-carboxamide]",> 0.05
25,"Cc1c(C(=O)NCCOC(F)(F)F)ccc2nn(CC3CN(C(=O)c4ccc(Cl)cc4)C3)cc12 [Example E105, 2-{[1-(4-chlorobenzoyl)azetidin-3-yl]methyl}-4-methyl-N-[2-(trifluoromethoxy)ethyl]-2H-indazole-5-carboxamide]",> 0.05
26,"Cc1c(C(=O)NCCOCC2CC2)ccc2nn(CC3CN(C(=O)c4ccc(-c5ccc(F)cc5)cc4)C3)cc12 [Example E107, N-[2-(cyclopropylmethoxy)ethyl]-2-({1-[(4′-fluorobiphenyl-4-yl)carbonyl]azetidin-3-yl}methyl)-4-methyl-2H-indazole-5-carboxamide]",> 0.05
27,"COCCNC(=O)c1ccc2nn(CC3CN(C(=O)c4ccc(-c5ccc(F)cc5)cc4)C3)cc2c1C [Example E108, 2-({1-[(4′-fluorobiphenyl-4-yl)carbonyl]azetidin-3-yl}methyl)-N-(2-methoxyethyl)-4-methyl-2H-indazole-5-carboxamide]",> 0.05
